Where a name gives a salt, the structure may show the parent alone.
Legend:
Human AML MV-4-11 cells = assay: Inhibition of cell proliferation in MV4-11 cells; format: cell-based; set-up: key: Active: Compounds with an IC50 value less than 30 μM are deemed to be active.; Not Active: Compounds with an IC50 value less than 30 μM are deemed to be active; conditions: 72 hours
Procedure: MV4-11 cells: 96-well plates were seeded with 5×10^4 cells per well of exponentially growing human AML MV-4-11 (CRL-9591) cells and immediately treated with two-fold dilutions of test compounds, ranging from 30 μM to 0.2 μM. Triplicate wells were used for each concentration, as well as a media only and three DMSO control wells. The cells and compounds were incubated at 37° C., 5% CO2 for 72 hours before adding 20 μL of the CellTiter Aqueous One Solution (Promega) to each well and incubating at 37° C., 5% CO2 for an additional 3-4 hours. The absorbance was taken at 490 nm in a spectrophotometer and the percentage of proliferation relative to DMSO-treated cells was calculated after correction from the blank well. IC50 were calculated using the GraphPad Prism software.

hApoA-1 mRNA = assay: Up-regulation of hApoA-1 mRNA transcription in Huh7 cells; format: cell-based, human; set-up: key: Active: Compounds with an EC170 value less than 30 μM are deemed to be active.; Not Active: Compounds with an EC170 value less than 30 μM are deemed to be active; conditions: 48 hrs treatment, ApoA-I mRNA
Procedure: In this example, ApoA-I mRNA in tissue culture cells was quantitated to measure the transcriptional up-regulation of ApoA-I when treated with a compound of the present disclosure.
Huh7 cells ([…] per well) were plated in a 96-well plate using 100 μL DMEM per well, (Gibco DMEM supplemented with penicillin/streptomycin and 10% FBS), 24 h before the addition of the compound of interest. After 48 hrs treatment, the spent media was removed from the Huh-7 cells and placed on ice (for immediate use) or at −80° C. (for future use) with the “LDH cytotoxicity assay Kit II” from Abcam. The cells remaining in the plate were rinsed with 100 μL PBS.
Then 85 μL of cell lysis solution was added to each well and incubated for 5-10 minutes at room temperature, to allow for complete cell lysis and detachment. mRNA was then prepared using the “mRNA Catcher PLUS plate” from Life Technologies, according to the protocol supplied. After the last wash, as much wash buffer as possible was aspirated without allowing the wells to dry. Elution Buffer (E3, 80 μL) was then added to each well. mRNA was then eluted by incubating the mRNA Catcher PLUS plate with Elution Buffer for 5 minutes at 68° C., and then 1 minute at 4° C. Catcher plates with mRNA eluted were kept on ice for use or stored at −80° C.
The eluted mRNA isolated was then used in a one-step real-time PCR reaction, using components of the Ultra Sense Kit together with Life Technologies primer-probe mixes. Real-time PCR data was analyzed, using the Ct values, to determine the fold induction of each unknown sample, relative to the control (that is, relative to the control for each independent DMSO concentration).
Compounds with an EC170 value less than 30 μM are deemed to be active.

hIL-6 mRNA = assay: Inhibition of hIL-6 mRNA transcription in LPS-stimulated U937 macrophages; format: cell-based, human; set-up: key: Active: Compounds with an IC50 value less than 30 μM are deemed to be active.; Not Active: Compounds with an IC50 value less than 30 μM are deemed to be active; conditions: U937 cells differentiated with PMA, 1 h pretreatment, LPS 3 h
Procedure: In this example, hIL-6 mRNA in tissue culture cells was quantitated to measure the transcriptional inhibition of hIL-6 when treated with a compound of the present disclosure.
A human leukemic monocyte lymphoma cell line (U937) was plated (3.2×10^4 cells per well) in a 96-well plate in […] RPMI-1640 containing 10% FBS and penicillin/streptomycin, and differentiated into macrophages for 3 days in 60 ng/mL PMA ([…]) at 37° C. in 5% CO2 prior to the addition of the compound of interest. The cells were pretreated for 1 h with the test compound prior to stimulation with 1 ug/mL lipopolysaccharide from Escherichia coli. The cells were incubated at 37-C for 3 h before the cells were harvested. At time of harvest, the spent media was removed from the cells and the cells were rinsed in 200 μL PBS. Cell lysis solution (70 μL) was added the cells in each well and incubated for 5-10 min at room temperature, to allow for complete cell lysis and detachment. mRNA was then prepared using the “mRNA Catcher PLUS plate” (Invitrogen), according to the protocol supplied. After the last wash, as much wash buffer as possible was aspirated without allowing the wells to dry. Elution buffer (E3, 70 μL) was then added to each well. mRNA was then eluted by incubating the mRNA Catcher PLUS plate with Elution Buffer for 5 min at 68° C. and then immediately placing the plate on ice.
The eluted mRNA isolated was then used in a one-step quantitative real-time PCR reaction, using components of the Ultra Sense Kit together with Applied Biosystems primer-probe mixes. Real-time PCR data was analyzed, normalizing the Ct values for hIL-6 to an internal control, prior to determining the fold induction of each unknown sample, relative to the control.

c-myc = assay: Inhibition of c-myc expression (mRNA, real-time PCR) in MV4-11 cells; format: cell-based; set-up: key: Active: Compounds with an IC50 value less than 30 μM were deemed to be active.; Not Active: Compounds with an IC50 value less than 30 μM were deemed to be active; conditions: Human AML MV4-11 cells, 3 hours
Procedure: MV4-11 cells (2.5×10^4 cells) were plated in 96 well U-bottom plates with test compound or DMSO (0.1%), and incubated for 3 hours at 37° C. Cells were then harvested by centrifugation, lysed, and mRNA was isolated using the mRNA catcher plus kit (Invitrogen). Reverse transcription of the mRNA and duplex amplification of the c-myc and cyclophilin cDNAs was performed using the RNA Ultrasense kit (Invitrogen) and a ViiA7 real-time PCR machine (Applied Biosystems). IC50 values were determined from a dose response curve.

Brd4 bromodomain 1 = target: T1, Brd4 bromodomain 1 (Homo sapiens, UniProt O60885); assay: Inhibition of tetra-acetylated histone H4 binding to BET bromodomain (TR-FRET); set-up: key: Active: Compounds with an IC50 value less than 30 μM were deemed to be active.; Not Active: Compounds with an IC50 value less than 30 μM were deemed to be active; conditions: Brd4 bromodomain 1, tetra-acetylated histone H4 peptide
T1 construct: made in house; host or cells: E. coli BL21(DE3)
Procedure: Proteins were cloned and overexpressed with a N-terminal 6×His tag, then purified by nickel affinity followed by size exclusion chromatography. Briefly, E. coli BL21(DE3) cells were transformed with a recombinant expression vector encoding N-terminally Nickel affinity tagged bromodomains from Brd2, Brd3, Brd4. Cell cultures were incubated at 37° C. with shaking to the appropriate density and induced overnight with IPTG. The supernatant of lysed cells was loaded onto Ni-IDA column for purification. Eluted protein is pooled, concentrated and further purified by size exclusion chromatography. Fractions representing monomeric protein were pooled, concentrated, aliquoted, and frozen at −80° C. for use in subsequent experiments.
Binding of tetra-acetylated histone H4 and BET bromodomains was confirmed by a Time Resolved Fluorescence Resonance Energy Transfer (TR-FRET) method. N-terminally His-tagged bromodomains (200 nM) and biotinylated tetra-acetylated histone H4 peptide (25-50 nM, Millipore) were incubated in the presence of Europium Cryptate-labeled streptavidin (Cisbio Cat. #610SAKLB) and XL665-labeled monoclonal anti-His antibody (Cisbio Cat. #61HISXLB) in a white 96 well microtiter plate (Greiner). For inhibition assays, serially diluted test compound was added to these reactions in a 0.2% final concentration of DMSO. Final buffer concentrations were 30 mM HEPES pH 7.4, 30 mM NaCl, 0.3 mM CHAPS, 20 mM phosphate pH 7.0, 320 mM KF, 0.08% BSA). After 2 hours incubation at room temperature, the fluorescence by FRET was measured at 665 and 620 nm by a SynergyH4 plate reader (Biotek). The binding inhibitory activity was shown by a decrease in 665 nm fluorescence relative to 620 nm. IC50 values were determined from a dose response curve.

Structure (SMILES) | cell proliferation activity (IC50 < 30 μM) (Human AML MV-4-11 cells) | melting point | ApoA-1 activity (EC170 < 30 μM) (hApoA-1 mRNA) | IL-6 activity (IC50 < 30 μM) (hIL-6 mRNA) | c-myc activity (IC50 < 30 μM) (c-myc) | FRET activity (IC50 < 30 μM) (Brd4 bromodomain 1)
COc1cc(OC)c2c(=O)[nH]c(-c3cccc(N4CCN(CC(C)C)CC4)n3)nc2c1 [Example 5, 2-(6-(4-Isobutylpiperazin-1-yl)pyridin-2-yl)-5,7-dimethoxyquinazolin-4(3H)-one] | Active | 188 to 189 °C | Active | Active | Active | Active
COc1cc(OC)c2c(=O)[nH]c(-c3ccc(OC)c(N4CCN(C(C)C)CC4)n3)nc2c1 [Example 14, 2-(6-(4-Isopropylpiperazin-1-yl)-5-methoxypyridin-2-yl)-5,7-dimethoxyquinazolin-4(3H)-one] | Active | 208 to 210 °C | Active | Not Active | Active | Active
COc1cc(-c2nc3cc(OC)cc(OC)c3c(=O)[nH]2)cc(N2CCN(C(C)C)CC2)c1 [Example 2, 2-(3-(4-Isopropylpiperazin-1-yl)-5-methoxyphenyl)-5,7-dimethoxyquinazolin-4(3H)-one] | Active | 212 to 213 °C | Active | Active | Active | Active
COc1cc(OC)c2c(=O)[nH]c(-c3cccc(N4CCN(CCC(=O)O)CC4)n3)nc2c1 [Example 11, 3-(4-(6-(5,7-Dimethoxy-4-oxo-3,4-dihydroquinazolin-2-yl)pyridin-2-yl)piperazin-1-yl)propanoic acid] | – | 241 °C (dec.) | Not Active | Not Active | – | Active
COc1cc(OC)c2c(=O)[nH]c(-c3cccc(N4CCN(CCO)CC4)n3)nc2c1 [Example 4, 2-(6-(4-(2-Hydroxyethyl)piperazin-1-yl)pyridin-2-yl)-5,7-dimethoxyquinazolin-4(3H)-one] | Active | 175 to 177 °C | Active | Active | Active | Active
COc1cc(OC)c2c(=O)[nH]c(-c3cccc(N4CCN(C(C)C)CC4)c3)nc2c1 [Example 1, 2-(3-(4-Isopropylpiperazin-1-yl)phenyl)-5,7-dimethoxyquinazolin-4(3H)-one] | Not Active | 251 to 253 °C | Active | Active | Active | Active
COC(=O)CN1CCN(c2cccc(-c3nc4cc(OC)cc(OC)c4c(=O)[nH]3)n2)CC1 [Example 7, Methyl 2-(4-(6-(5,7-dimethoxy-4-oxo-3,4-dihydroquinazolin-2-yl)pyridin-2-yl)piperazin-1-yl)acetate] | – | 176 to 177 °C | – | Active | – | Active
COc1cc(OC)c2c(=O)[nH]c(-c3cccc(N4CCN(CC(=O)O)CC4)n3)nc2c1 [Example 10, 2-(4-(6-(5,7-Dimethoxy-4-oxo-3,4-dihydroquinazolin-2-yl)pyridin-2-yl)piperazin-1-yl)acetic acid] | – | 225 °C (dec.) | – | Not Active | – | Active
COc1cc(OC)c2c(=O)[nH]c(-c3ccc(OCCO)c(N4CCN(C(C)C)CC4)n3)nc2c1 (as salt: acetate) [Example 13, 2-(5-(2-Hydroxyethoxy)-6-(4-isopropylpiperazin-1-yl)pyridin-2-yl)-5,7-dimethoxyquinazolin-4(3H)-one acetate] | – | 138 to 139 °C | – | – | – | –

Reference: US9278940B2, “Cyclic amines as bromodomain inhibitors” (Zenith Epigenetics Corp., priority 2012, dated 2016)
